The nature of series [1]: Pharmacokinetic study of vanillin-thiazolidine adduct and vanillin by oral administration in rats (vanillin in blood by HPLC). The series is classed as in vivo, Sprague-Dawley rats. Particulars: oral gavage, blood concentration-time curves 2-180 min. Here is the method:
Sixteen Sprague-Dawley rats (male, 200-300 g) were catheterized at the carotid at least 12 hours before drug administration and the catheter was flushed with heparin solution to prevent line clotting. […] Blood samples were collected by unhooking the flush syringe and letting the blood flow freely into centrifuge tubes at predetermined time points, i.e., 2, 5, 10, 15, 30, 45, 60, 90, 120 and 180 minutes after gavage. To each 100 μl of blood sample was added 400 μl of perchloric acid in a centrifuge tube. After vigorously vortexing, the samples in centrifuge tubes were spun down at 13,000 rpm for 10 min.
A striking difference was noted between the pharmacokinetic profiles of vanillin-thiazolidine and of unmodified vanillin.
Noncompartmental pharmacokinetic analysis was then carried out using WinNolin (Pharsight Inc., Mountain View, Calif.) and the results are summarized in Table 1, below. […] The maximum concentration at 2 minutes (Cmax) was also approximately 4 times higher in the former compared to the latter.

For series [2] the following is noted: cited from earlier work.
The next series concerns the target hemoglobin S (Homo sapiens, UniProt P68871+P69905, E7V). Particulars: in solution and in intact red cells; cited from earlier work.
For series [3] the following is noted: orally administered; extensive metabolism in the intestines and liver; cited from earlier work.
A short description of series [4]: Hydrophobicity compared with vanillin. The series is classed as physicochemical. From the text: It is well known that vanillin can be extensively metabolized by intestinal bacteria and the liver (Strand and Scheline, supra). It is likely that the vanillin-derived thiazolidine is not easily metabolized by the same routes.

For the molecule `COc1cc(C=O)ccc1O` [Vanillin, 4-hydroxy-3-methoxybenzaldehyde], the “vanillin levels in the blood and half-life (FIG. 1 profile, in words)” value in series [1] is listed as “low with a short half-life”. The “body and organ weights, hemotology, histopathology, test vs control rats” value in series [2] (1.0% of the diet for 16 weeks, 2.0% and 5.0% for 1 year, or 0.5%, 1.0% and 2.0% for 2 years) is listed as “no significant differences”. In addition, the “toxicity on extended feeding” value in series [2] (rats, vanillin at high levels for extensive periods) is “No toxicity was observed”. Besides, the “oxygen affinity of hemoglobin S” value at hemoglobin S is listed as “marked increase in oxygen affinity”. Also, the oral bioavailability result in series [3] was “poorly bioavailable”.

With `CCOC(=O)C1CSC(c2ccc(O)c(OC)c2)N1` (stereo not shown) [Vanillin-Thiazolidine Adduct, Ethyl 2-(4-hydroxy-3-methoxyphenyl)-1,3-thiazolidine-4-carboxylate], the “vanillin levels in the blood and half-life (FIG. 1 profile, in words)” value in series [1] was “higher, with a much longer half-life”. In addition, in series [4], the “hydrophobicity relative to vanillin” value is “more hydrophobic than vanillin”.

(Values after US20030022923A1, “Methods for treatment of sickle cell anemia” (Medinox, Inc., priority 2001, published 2003).)
